The values that follow come from article PMC8187479, “Sugar phosphate activation of the stress sensor eIF2B” (Nature Communications, 2021).

The first test addresses T1, eIF2Bα (Homo sapiens, UniProt Q14232).
T1 construct: made in house; host or cells: E. coli BL21(DE3)
T1 sequence (Q14232 1-305): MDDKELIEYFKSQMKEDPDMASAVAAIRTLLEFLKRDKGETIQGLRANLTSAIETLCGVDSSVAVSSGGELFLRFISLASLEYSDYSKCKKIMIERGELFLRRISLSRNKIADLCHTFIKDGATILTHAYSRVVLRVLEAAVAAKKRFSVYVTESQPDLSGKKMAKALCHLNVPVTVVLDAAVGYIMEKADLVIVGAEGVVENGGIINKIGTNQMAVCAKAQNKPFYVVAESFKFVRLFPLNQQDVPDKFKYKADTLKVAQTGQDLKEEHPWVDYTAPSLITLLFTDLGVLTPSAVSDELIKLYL
Nature of the test: MIDAS (mass spectrometry integrated with equilibrium dialysis) metabolite binding screen. Conditions: MIDAS metabolite binding screen with eIF2Bα; sheet "eIF2Ba". The procedure: Metabolites were combined into four defined screening pools. […] To the reverse side, 300 μL of 50 μM per metabolite pool was aliquoted and sealed (metabolite chamber). Loaded dialysis plates were placed in the dark at 4 °C on a rotating shaker (120 rpm) and incubated for 40 h. Post-dialysis, metabolites were isolated from each chamber by cold methanol extraction. Each sample was analyzed in technical triplicate by FIA-MS on a SCIEX X500R QTOF MS with interspersed blanks injections. The input metabolite pools were assayed at the beginning, middle, and end of each MS method batch for QC and normalization.
MIDAS FIA-MS spectra were processed in SCIEX OS 1.6 software to determine metabolite abundances by integrating the mean area under the curve for each extracted ion chromatogram. For each dialysis replicate, log2(fold change) for each metabolite was calculated as the difference between the log2 abundance in the protein chamber and metabolite chamber. For each technical triplicate, up to one outlier was removed using a z-score cutoff of five (<0.1% of observations). The corrected technical replicates were collapsed to one mean fold-change summary per protein-metabolite pair. To remove fold-change variation that was not specific to a given metabolite-protein pair, the first three principal components of the total screening dataset were removed on a per metabolite pool basis by subtracting the projection of the first 3 principal components, creating log2(corrected fold change). Protein-metabolite z-scores were determined by comparing the target protein-metabolite log2(corrected fold change) to a no-signal model for that metabolite using measures of the central tendency (median) and standard deviation (extrapolated from the 25–75% quantiles), which are robust to the signals in the tails of a metabolite’s fold-change distribution. Z-scores were false-discovery rate controlled using Storey’s q-value (qvalue, R) and protein-metabolite interactions with q-values < 0.1 were considered significant.
For `O=P(O)(O)OCC1OC(OP(=O)(O)OP(=O)(O)O)C(O)C1O` [5-Phospho-D-ribose 1-diphosphate], the “log2(corrected fold change)” value is 0.1645.
Take `C[C@H](O)[C@@H](O)[C@@H](O)[C@H](O)C(=O)O` [6-Deoxy-L-galactonic acid]: the “log2(corrected fold change)” value was -0.02256.
With `N[C@@H](C[C@@H](O)C(=O)O)C(=O)O` [(4R)-4-Hydroxy-L-glutamic acid], the “log2(corrected fold change)” value was -0.03114.
Consider `CC(=O)NCC(=O)O` [Acetylamino-acetic acid], for which the “log2(corrected fold change)” value is 0.03921.
With `Nc1ncnc2c1ncn2[C@@H]1O[C@H](COP(=O)(O)OP(=O)(O)OP(=O)(O)O)[C@@H](O)[C@H]1O` [Adenosine triphosphate], the “log2(corrected fold change)” value was determined as 0.05437.
On the same count and under the same terms, then `Nc1ncnc2c1ncn2[C@@H]1O[C@H](CO)[C@@H](O)[C@H]1O` [Adenosine], with 0.2973.
Turning to `Nc1ncnc2c1ncn2[C@@H]1O[C@H](COP(=O)(O)OP(=O)(O)NP(=O)(O)O)[C@@H](O)[C@H]1O` [Adenyl imidodiphosphate], the “log2(corrected fold change)” value is -0.08962.
As for `OC[C@@H](O)[C@@H](O)[C@@H](O)CO` [Adonitol], the “log2(corrected fold change)” value amounted to 0.006339.
With `Cn1cncc1C[C@H](NC(=O)CCN)C(=O)O` [Anserine], the “log2(corrected fold change)” value is -0.02715.
Regarding `O=C1O[C@H]([C@@H](O)CO)C(O)=C1O` [Ascorbate], the “log2(corrected fold change)” value stood at 0.01654.
On to `NCCC(=O)O` [Beta-alanine], for which the “log2(corrected fold change)” value amounted to 0.0004222.
In the case of `N[C@@H](CCCCNC(=O)CCCC[C@@H]1SC[C@@H]2NC(=O)N[C@@H]21)C(=O)O` [Biocytin], the “log2(corrected fold change)” value was -0.00281.

Still in this test, the particulars now being: MIDAS screen, sheet eIF2Ba; metabolites screened in pools 1-4; p-value and q-value given.
`O=C(O)[C@H](O)[C@@H](O)[C@H](O)[C@H](O)COP(=O)(O)O` [6-Phosphogluconic acid]: the “log2(corrected fold change)” value is reported as -0.1601.
With `C[C@@H](O)CC(=O)O` [(R)-3-Hydroxybutyric acid], the “log2(corrected fold change)” value is reported as -0.1099.
For `C[C@H](CO)C(=O)O` [(R)-Hydroxyisobutyrate], the “log2(corrected fold change)” value was determined as 0.07137.
As for `C[C@H](O)CC(=O)O` [(S)-3-Hydroxybutyric acid], the “log2(corrected fold change)” value amounted to 0.07137.
Consider `C[C@@H](CO)C(=O)O` [(S)-Hydroxyisobutyrate], for which the “log2(corrected fold change)” value is on record as 0.07137.
On the same count and under the same terms, the value for `NC(=O)c1ncn([C@@H]2O[C@H](CO)[C@@H](O)[C@H]2O)c1N` [AICAR] was 0.005355; that for `CC(=O)CC(=O)O` [Acetoacetate] was -0.05529.
Turning to `CC(=O)CC(=O)SCCNC(=O)CCNC(=O)[C@H](O)C(C)(C)COP(=O)(O)OP(=O)(O)OC[C@H]1O[C@@H](n2cnc3c(N)ncnc32)[C@H](O)[C@@H]1OP(=O)(O)O` [Acetoacetyl coenzyme A], the “log2(corrected fold change)” value is listed as 0.4297.
With `CC(=O)SCCNC(=O)CCNC(=O)[C@H](O)C(C)(C)COP(=O)(O)OP(=O)(O)OC[C@H]1O[C@@H](n2cnc3c(N)ncnc32)[C@H](O)[C@@H]1OP(=O)(O)O` [Acetyl coenzyme A], the “log2(corrected fold change)” value was -0.09022.
On to `CC(=O)OCC[N+](C)(C)C` [Acetylcholine], for which the “log2(corrected fold change)” value is -0.07879.
`Nc1ncnc2[nH]cnc12` [Adenine]: the “log2(corrected fold change)” value was -0.2309.
Turning to `O=C(O)C[C@H](Nc1ncnc2c1ncn2[C@@H]1O[C@H](COP(=O)(O)O)[C@@H](O)[C@H]1O)C(=O)O` [Adenylosuccinic acid], the “log2(corrected fold change)” value is given as -0.03472.
With `NCCCCN=C(N)N` [Agmatine], the “log2(corrected fold change)” value came to 0.1363.
Consider `Nc1ccccc1C(=O)O` [Anthranilate], for which the “log2(corrected fold change)” value was -0.04243.
With `C[N+](C)(C)CC=O` [Betaine aldehyde hydrate], the “log2(corrected fold change)” value was -0.08887.
In the case of `C[N+](C)(C)CC=O` [Betaine aldehyde], the “log2(corrected fold change)” value is on record as -0.1426.
Still for that read-out and setting: then `C[N+](C)(C)CC(=O)O` [Betaine], with 0.2268.
